For 3 compounds, EC50 results are on record in PubChem BioAssay AID1956 (SRMLSC, 2009).

Active and inactive are the calls of the source. Cut-off read from the data, not from the text of the source: active = maximum fold increase above about 1.5; inconclusive = no clear call, values can overlap the other calls; inactive = below that; tested in PC3 cells. Where only a bound is given, the exact number is not on record here.

This assay has as its system HSV replication augmentation in cells, fold increase. Kind of assay: compounds boosting herpes simplex virus growth – fold increase, host cell viability (AID 1956).

Usually EC50 stands for the concentration needed to bring the measured effect to its halfway point. Take `CCOCCCNC(=S)N1CCCN(c2nc3cc(C)c(C)cc3cc2C#N)CC1`: the EC50 is > 25 µM (inactive).

As for `Nc1c(Cl)ncnc1N/N=C/c1ccc2ccccc2n1`, the EC50 was 4.3 µM (inactive).

With `CC(C)(C)c1ccc(Oc2ccc(N)cn2)cc1`, the EC50 was > 25 µM (inactive).
